# From patent US20250101430A1, “METHODS OF CANCER TREATMENT BY INHIBITION OF VASCULOGENESIS AND GLI1” (priority 2021, published 2025)
# “Also recorded” adds a separate entry of the source.
# Experiments:
# Rh18 cells = experiment: rt-PCR of GLI1 target gene Bcl-2 in GANT-61 treated Rh18 cells; format: cell-based
# Experimental: (§1) High-Capacity RNA-to-cDNA kit (Applied Biosystems) was used to reverse transcribe the isolated RNA. Each reaction tube included up to 2 μg of RNA. The reverse transcription reaction was performed according to manufacturer instructions via the MBS Satellite (0.2 G) Thermal Cycler (ThermoFisher Scientific). The qPCR reaction mix was prepared by adding 12 ng of cDNA from each sample to the PowerUp SYBR Green Master Mix (2×) (Applied Biosystems). qPCR was performed (Standard Cycling Mode, primer Tm<60° C.) via the 7500 Fast Real-Time PCR system [Applied Biosystems]. The 7500 v2.3 software was used for data collection and gene expression comparisons (2^−ΔΔCT method).
# (§2) First, to validate the effect of GANT-61 inhibition on GLI1 target genes, rt-PCR on GANT-61 treated Rh18 and Rh41 cells was performed. These cell lines express GLI1.
# Rh41 cells = experiment: rt-PCR of GLI1 target gene Bcl-2 in GANT-61 treated Rh41 cells; format: cell-based
# Experimental: as §1, §2
# hESCs = experiment: Marker expression in hESCs maintained in mTeSR1 media with GANT-61; format: cell-based, human; settings: 5 μM and 20 μM GANT-61, 6 or 12 days
# Experimental: H1 (WA01), a well characterized human embryonic stem cell line,^33 was purchased from WiCell (Madison, WI, www.wicell.org/home/stem-cells/catalog-of-stem-cell-lines/wa01.cmsx). The cells were maintained on Matrigel-coated culture dishes in mTeSR1 medium (STEMCELL Technologies) or StemMACS iPS-Brew XF (Miltenyi Biotec).
# as §1
# Next, the effect of GANT-61 on GLI1 and SHH pathway members PTCH1 and SMO expression and on pluripotency marker expression in hESCs was evaluated.
# H1 hESCs = experiment: Spontaneous differentiation of WT H1 hESC in embryoid bodies in the presence of GANT-61, real time PCR; format: cell-based, human
# Experimental: WT H1 hESC single cells were plated onto non-attachment plates and maintained in ESC media without FGF-β in the presence of FBS. Experimental group was cultured in the presence of GANT-61 (Tocris Biosciences, Cat. No. 3191) at concentration of 5 μM, while the control group was cultured in the presence of 5 μM DMSO. Media containing GANT-61 was replaced every other day. Embryoid bodies were collected at days 10 and 20. Markers for the three embryologic lineages were analyzed by real time PCR.
# as §1
# [1] = system: GLI1 and GLI2 transcription factors; settings: cited from earlier work
# GLI1 = target: T1, GLI1 (Homo sapiens, UniProt P08151); settings: between zinc fingers 2 and 3 at sites E119 and E167; cited from earlier work
# T1 sequence (P08151 1-1106): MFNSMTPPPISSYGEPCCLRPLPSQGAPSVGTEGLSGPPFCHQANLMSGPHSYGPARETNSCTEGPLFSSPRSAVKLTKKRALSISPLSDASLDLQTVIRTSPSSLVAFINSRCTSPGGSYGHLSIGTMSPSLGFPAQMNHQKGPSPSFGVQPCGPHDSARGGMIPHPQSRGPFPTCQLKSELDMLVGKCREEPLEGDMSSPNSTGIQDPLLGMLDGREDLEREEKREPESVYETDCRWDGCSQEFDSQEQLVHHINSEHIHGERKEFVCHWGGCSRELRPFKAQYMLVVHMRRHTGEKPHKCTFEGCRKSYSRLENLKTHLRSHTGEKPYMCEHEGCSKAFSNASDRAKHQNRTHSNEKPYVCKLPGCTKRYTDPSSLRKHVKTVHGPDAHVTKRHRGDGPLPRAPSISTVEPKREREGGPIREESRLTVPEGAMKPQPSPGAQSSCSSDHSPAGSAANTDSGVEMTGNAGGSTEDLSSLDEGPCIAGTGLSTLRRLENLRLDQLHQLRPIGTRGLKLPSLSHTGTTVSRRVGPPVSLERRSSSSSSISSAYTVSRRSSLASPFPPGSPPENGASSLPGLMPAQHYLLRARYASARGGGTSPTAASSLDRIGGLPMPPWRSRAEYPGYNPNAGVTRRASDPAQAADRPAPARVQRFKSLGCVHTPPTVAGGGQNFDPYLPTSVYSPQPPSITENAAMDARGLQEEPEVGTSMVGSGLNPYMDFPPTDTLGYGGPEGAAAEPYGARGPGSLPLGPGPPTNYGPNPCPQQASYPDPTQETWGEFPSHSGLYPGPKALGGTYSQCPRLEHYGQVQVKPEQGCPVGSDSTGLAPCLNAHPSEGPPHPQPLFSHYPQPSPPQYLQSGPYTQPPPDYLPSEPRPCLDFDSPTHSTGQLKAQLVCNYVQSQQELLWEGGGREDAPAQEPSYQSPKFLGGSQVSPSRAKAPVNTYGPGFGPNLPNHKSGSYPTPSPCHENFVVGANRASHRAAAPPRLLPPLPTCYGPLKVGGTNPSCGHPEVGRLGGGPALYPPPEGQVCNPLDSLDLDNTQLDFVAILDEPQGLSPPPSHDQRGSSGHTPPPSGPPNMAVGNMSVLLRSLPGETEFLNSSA
# DNA = settings: cited from earlier work
# [2] = system: human colon carcinoma cell lines; settings: panel of 7 human colon carcinoma cell lines; cited from earlier work
# [3] = system: lung adenocarcinoma cell lines; settings: cited from earlier work
# cancer cells = settings: cited from earlier work
# HUVEC cells = settings: cited from earlier work
# [4] = 5 μM GANT-61, day 10 embryoid bodies
# [5] = 5 μM GANT-61, during the differentiation process
structure (smiles),measurement,setting,value
CN(C)c1ccccc1CN1CCCN(Cc2ccccc2N(C)C)C1c1ccncc1 [GANT-61],Bcl-2 expression,Rh18 cells,significant down-regulation
same,Bcl-2 expression,Rh41 cells,significant down-regulation
same,GLI1 expression,hESCs,no significant differences
same,PTCH1 expression,hESCs,no significant differences
same,SMO expression,hESCs,no significant differences
same,pluripotency marker expression,hESCs,no significant differences
same,mesodermal commitment of H1 hESCs in embryoid bodies,H1 hESCs,inhibited
same,GLI1 expression,"H1 hESCs; 5 μM GANT-61, day 10",down-regulated
same,GLI2 expression,"H1 hESCs; 5 μM GANT-61, day 10",down-regulated
same,PTCH1 expression,"H1 hESCs; 5 μM GANT-61, day 10",down-regulated
same,Plakoglobin expression,"H1 hESCs; 5 μM GANT-61, day 10",down-regulated
same,expression of pluripotency genes,"H1 hESCs; 5 μM GANT-61, day 10",down-regulated
same,ectodermal gene expression / differentiation,H1 hESCs; [4],decreased; also recorded: inhibited
same,endodermal gene expression / differentiation,H1 hESCs; [4],significantly increased; also recorded: promoted
same,mesodermal gene expression / differentiation,H1 hESCs; [4],significantly increased; also recorded: promoted
same,GLI1 expression,"H1 hESCs; 5 μM GANT-61, day 20",continued to down-regulate
same,GLI2 expression,"H1 hESCs; 5 μM GANT-61, day 20",continued to down-regulate
same,PTCH1 expression,"H1 hESCs; 5 μM GANT-61, day 20",continued to down-regulate
same,endodermal marker expression,"H1 hESCs; 5 μM GANT-61, day 20",significantly decreased; also recorded: significantly reduced
same,expression of pluripotency genes,"H1 hESCs; 5 μM GANT-61, day 20",continued to down-regulate
same,mesodermal marker expression,"H1 hESCs; 5 μM GANT-61, day 20",significantly decreased; also recorded: significantly reduced
same,GLI1 expression,H1 hESCs; [5],significantly down-regulated
same,PTCH1 expression,H1 hESCs; [5],significantly down-regulated
same,binding of GLI1 and GLI2 transcription factors to DNA,[1],inhibiting the binding
same,binding to GLI1,GLI1,binds
same,binding to DNA,DNA,does not bind
same,cell death,[2],extensive cell death
same,cancer initiating phenotype,[3],effective inhibiting
same,apoptosis,cancer cells,increases
same,proliferation,cancer cells,reduces
same,stem cell markers,cancer cells,reduces
c1cc(-c2sc(-c3ccncc3)c(-c3ccncc3)c2-c2ccncc2)ccn1 [GANT-58],oxytocin induced HIF-1alpha expression,HUVEC cells; HUVEC cells,abrogate
same,angiogenic capacity of HUVEC cells,HUVEC cells,reduction
